Numbers after ± are expanded uncertainties.
Key:
[1] = for surface tension liquid-gas: Ring tensiometer; for viscosity / speed of sound / mass density: 101.33 kPa, Liquid; for speed of sound: Pulse-echo method; for mass density: Vibrating tube method
[2] = refractive index (Na D-line) (dimensionless); conditions: 101.33 kPa, Liquid, Standard Abbe refractometry

CCCCn1cc[n+](C)c1.O=S(=O)([O-])O [1-butyl-3-methylimidazolium hydrogen sulfate]
Conditions	mass density, [1] [kg/m3]	refractive index, [2]	speed of sound, [1] [m/s]	surface tension liquid-gas, [1] [mN/m]	viscosity, [1] [mPa·s]
298.15 K	1224 ± 8	1.5043 ± 0.0013	1689.8 ± 5.1	43.6 ± 1.2	439.36 ± 53
303.15 K	1220 ± 8	1.5 ± 0.0013	1676.7 ± 5.1	43.2 ± 1.2	321.95 ± 33
308.15 K	1217 ± 8	1.4965 ± 0.0013	1664.3 ± 5.1	42.8 ± 1.2	240.81 ± 21
313.15 K	1214 ± 8	1.4914 ± 0.0013	1652.1 ± 5.1	42.4 ± 1.2	183.54 ± 14
318.15 K	1211 ± 8	1.4857 ± 0.0013	1640.2 ± 5.1	42 ± 1.2	142.55 ± 8.9
323.15 K	1208 ± 8	1.4813 ± 0.0013	1628.5 ± 5.1	41.7 ± 1.2	112.37 ± 5.7
328.15 K	1204 ± 8	1.4762 ± 0.0013	1615.5 ± 5.1	41.3 ± 1.2	89.95 ± 3.7
333.15 K	1201 ± 8	1.4721 ± 0.0013	1601.5 ± 5.1	40.9 ± 1.2	72.88 ± 2.4

CCCCCCCC[n+]1ccn(C)c1.F[P-](F)(F)(F)(F)F [1-octyl-3-methylimidazolium hexafluorophosphate]
Conditions	mass density, [1] [kg/m3]	refractive index, [2]	speed of sound, [1] [m/s]	surface tension liquid-gas, [1] [mN/m]	viscosity, [1] [mPa·s]
298.15 K	1234 ± 8	1.4217 ± 0.0013	1404.7 ± 5.1	36.1 ± 1	603.44 ± 82
303.15 K	1231 ± 8	1.4211 ± 0.0013	1390.3 ± 5.1	35.9 ± 1	430.88 ± 51
308.15 K	1226 ± 8	1.4206 ± 0.0013	1376.6 ± 5.1	35.6 ± 1	314.44 ± 32
313.15 K	1223 ± 8	1.4201 ± 0.0013	1363.6 ± 5.1	35.3 ± 1	234.24 ± 20
318.15 K	1219 ± 8	1.4195 ± 0.0013	1351 ± 5.1	35.1 ± 1	177.79 ± 13
323.15 K	1215 ± 8	1.4186 ± 0.0013	1338.9 ± 5.1	34.9 ± 1	137.24 ± 8.3
328.15 K	1211 ± 8	1.4177 ± 0.0013	1327 ± 5.1	34.6 ± 1	107.58 ± 5.2
333.15 K	1208 ± 8	1.4167 ± 0.0013	1315.5 ± 5.1	34.3 ± 1	85.58 ± 3.3

CCCCCCCC[n+]1ccn(C)c1.[Cl-] [1-methyl-3-octylimidazolium chloride]
Conditions	mass density, [1] [kg/m3]	refractive index, [2]	speed of sound, [1] [m/s]	surface tension liquid-gas, [1] [mN/m]	viscosity, [1] [mPa·s]
298.15 K	1010 ± 3	1.5088 ± 0.001	1687.2 ± 3.1	32.5 ± 0.7	13267 ± 4000
303.15 K	1007 ± 3	1.5085 ± 0.001	1667.7 ± 3.1	32.2 ± 0.7	7770.4 ± 2100
308.15 K	1004 ± 3	1.5061 ± 0.001	1646.1 ± 3.1	31.9 ± 0.7	4755.2 ± 1200
313.15 K	1001 ± 3	1.5058 ± 0.001	1619.6 ± 3.1	31.6 ± 0.7	3006.7 ± 660
318.15 K	998 ± 3	1.5054 ± 0.001	1597.1 ± 3.1	31.3 ± 0.7	1967.6 ± 390
323.15 K	995 ± 3	1.5048 ± 0.001	1577.4 ± 3.1	31 ± 0.6	1323.4 ± 230
328.15 K	992 ± 3	1.5037 ± 0.001	1559.6 ± 3.1	30.7 ± 0.6	914.13 ± 140
333.15 K	989 ± 3	1.5029 ± 0.001	1543 ± 3.1	30.4 ± 0.6	646.96 ± 90

CCCCn1cc[n+](C)c1.F[P-](F)(F)(F)(F)F [1-butyl-3-methylimidazolium hexafluorophosphate]
Conditions	mass density, [1] [kg/m3]	refractive index, [2]	speed of sound, [1] [m/s]	surface tension liquid-gas, [1] [mN/m]	viscosity, [1] [mPa·s]
298.15 K	1367 ± 4	1.4101 ± 0.001	1443.6 ± 3.1	43 ± 0.9	273.94 ± 26
303.15 K	1363 ± 4	1.4085 ± 0.001	1431.6 ± 3.1	42.6 ± 0.9	203.2 ± 16
308.15 K	1359 ± 4	1.4081 ± 0.001	1419.8 ± 3.1	42.2 ± 0.9	153.99 ± 9.7
313.15 K	1355 ± 4	1.407 ± 0.001	1408.3 ± 3.1	41.9 ± 0.8	118.96 ± 5.9
318.15 K	1351 ± 4	1.4068 ± 0.001	1396.9 ± 3.1	41.7 ± 0.8	93.44 ± 3.5
323.15 K	1347 ± 4	1.4058 ± 0.001	1385.8 ± 3.1	41.2 ± 0.8	74.6 ± 2
328.15 K	1343 ± 4	1.4053 ± 0.001	1374.7 ± 3.1	40.8 ± 0.8	60.43 ± 1.1
333.15 K	1339 ± 4	1.4042 ± 0.001	1363.8 ± 3.1	40.5 ± 0.8	49.62 ± 0.98

CCCCCCn1cc[n+](C)c1.F[P-](F)(F)(F)(F)F [1-hexyl-3-methylimidazolium hexafluorophosphate]
Conditions	mass density, [1] [kg/m3]	refractive index, [2]	speed of sound, [1] [m/s]	surface tension liquid-gas, [1] [mN/m]	viscosity, [1] [mPa·s]
298.15 K	1292 ± 4	1.4179 ± 0.001	1424.4 ± 3.1	37.2 ± 0.8	349.17 ± 37
303.15 K	1288 ± 4	1.4161 ± 0.001	1411.3 ± 3.1	36.9 ± 0.8	253.96 ± 23
308.15 K	1284 ± 4	1.4148 ± 0.001	1399.6 ± 3.1	36.6 ± 0.7	188.77 ± 14
313.15 K	1280 ± 4	1.4134 ± 0.001	1386.7 ± 3.1	36.3 ± 0.7	142.99 ± 8.4
318.15 K	1276 ± 4	1.4115 ± 0.001	1374.9 ± 3.1	36 ± 0.7	110.24 ± 5
323.15 K	1272 ± 4	1.4104 ± 0.001	1363.4 ± 3.1	35.7 ± 0.7	86.42 ± 2.9
328.15 K	1268 ± 4	1.4088 ± 0.001	1352.1 ± 3.1	35.4 ± 0.7	68.87 ± 1.6
333.15 K	1264 ± 4	1.4075 ± 0.001	1340.8 ± 3.1	35.1 ± 0.7	55.62 ± 0.9

COS(=O)(=O)[O-].Cn1cc[n+](C)c1 [1,3-dimethylimidazolium methylsulfate]
Conditions	mass density, [1] [kg/m3]	refractive index, [2]	speed of sound, [1] [m/s]	surface tension liquid-gas, [1] [mN/m]	viscosity, [1] [mPa·s]
298.15 K	1329 ± 4	1.4817 ± 0.001	1811.5 ± 3.1	57.6 ± 1.1	71.7 ± 1.8
303.15 K	1323 ± 4	1.4811 ± 0.001	1799.4 ± 3.1	57.3 ± 1.1	57.6 ± 0.97
308.15 K	1319 ± 4	1.4804 ± 0.001	1787.3 ± 3.1	56.8 ± 1.1	46.93 ± 0.92
313.15 K	1316 ± 4	1.4797 ± 0.001	1775.4 ± 3.1	56.4 ± 1.1	38.81 ± 0.77
318.15 K	1312 ± 4	1.4792 ± 0.001	1763.6 ± 3.1	56 ± 1.1	32.52 ± 0.64
323.15 K	1308 ± 4	1.4785 ± 0.001	1751.9 ± 3.1	55.5 ± 1.1	27.59 ± 0.55
328.15 K	1305 ± 4	1.4779 ± 0.001	1740.3 ± 3.1	55.1 ± 1.1	23.67 ± 0.47
333.15 K	1302 ± 4	1.4771 ± 0.001	1728.8 ± 3.1	54.8 ± 1.1	20.5 ± 0.41

CCn1cc[n+](C)c1.COS(=O)(=O)[O-] [1-ethyl-3-methylimidazolium methylsulfate]
Conditions	mass density, [1] [kg/m3]	refractive index, [2]	speed of sound, [1] [m/s]	surface tension liquid-gas, [1] [mN/m]	viscosity, [1] [mPa·s]
298.15 K	1292 ± 2	1.4741 ± 0.0009	1762.1 ± 2.2	39.8 ± 0.7	94.91 ± 3.4
303.15 K	1289 ± 2	1.4739 ± 0.0009	1750.4 ± 2.2	39.5 ± 0.7	76.8 ± 2
308.15 K	1285 ± 2	1.4735 ± 0.0009	1738.7 ± 2.2	39.2 ± 0.7	61.66 ± 0.94
313.15 K	1282 ± 2	1.4721 ± 0.0009	1727 ± 2.2	38.9 ± 0.7	51.28 ± 0.52
318.15 K	1279 ± 2	1.4716 ± 0.0009	1715.5 ± 2.2	38.8 ± 0.7	42.42 ± 0.69
323.15 K	1275 ± 2	1.4706 ± 0.0009	1704 ± 2.2	38.4 ± 0.7	35.33 ± 0.58
328.15 K	1272 ± 2	1.4702 ± 0.0009	1692.6 ± 2.2	38.2 ± 0.6	30.11 ± 0.49
333.15 K	1268 ± 2	1.4698 ± 0.0009	1681.3 ± 2.2	38 ± 0.6	26.25 ± 0.43

CC(C)C[P+](C)(CC(C)C)CC(C)C.Cc1ccc(S(=O)(=O)[O-])cc1 [triisobutylmethylphosphonium p-toluenesulfonate]
Conditions	mass density, [1] [kg/m3]	refractive index, [2]	speed of sound, [1] [m/s]	surface tension liquid-gas, [1] [mN/m]	viscosity, [1] [mPa·s]
298.15 K	1068 ± 6	1.5185 ± 0.0013	1628.8 ± 5.1	33.9 ± 1	2132.4 ± 430
303.15 K	1065 ± 6	1.5181 ± 0.0013	1610.6 ± 5.1	33.8 ± 1	1363.2 ± 250
308.15 K	1062 ± 6	1.5174 ± 0.0013	1585.6 ± 5.1	33.6 ± 1	896.08 ± 140
313.15 K	1059 ± 6	1.516 ± 0.0013	1567.6 ± 5.1	33.4 ± 1	606.71 ± 83
318.15 K	1056 ± 6	1.5151 ± 0.0013	1551.1 ± 5.1	33.2 ± 1	422.49 ± 50
323.15 K	1053 ± 6	1.5144 ± 0.0013	1535.7 ± 5.1	32.9 ± 0.9	302.17 ± 30
328.15 K	1050 ± 6	1.5123 ± 0.0013	1521.5 ± 5.1	32.8 ± 0.9	221.27 ± 19
333.15 K	1047 ± 6	1.5119 ± 0.0013	1508.3 ± 5.1	32.6 ± 0.9	165.53 ± 12

CCCC[n+]1ccc(C)cc1.F[B-](F)(F)F [1-butyl-4-methylpyridinium tetrafluoroborate]
Conditions	mass density, [1] [kg/m3]	refractive index, [2]	speed of sound, [1] [m/s]	surface tension liquid-gas, [1] [mN/m]	viscosity, [1] [mPa·s]
298.15 K	1190 ± 3	1.4507 ± 0.001	1602.3 ± 3.1	45.4 ± 0.9	202.86 ± 16
303.15 K	1186 ± 3	1.4502 ± 0.001	1589.7 ± 3.1	45.1 ± 0.9	146.57 ± 8.8
308.15 K	1183 ± 3	1.4495 ± 0.001	1577.4 ± 3.1	44.8 ± 0.9	108.7 ± 4.9
313.15 K	1179 ± 3	1.4488 ± 0.001	1565.2 ± 3.1	44.5 ± 0.9	82.49 ± 2.6
318.15 K	1176 ± 3	1.4482 ± 0.001	1553.2 ± 3.1	44.2 ± 0.9	63.94 ± 1.3
323.15 K	1173 ± 3	1.4475 ± 0.001	1541.2 ± 3.1	43.9 ± 0.9	50.51 ± 0.76
328.15 K	1169 ± 3	1.4469 ± 0.001	1529.6 ± 3.1	43.5 ± 0.9	40.6 ± 0.8
333.15 K	1166 ± 3	1.4463 ± 0.001	1517.9 ± 3.1	43.2 ± 0.9	33.14 ± 0.66
